Data on 15 compounds can be found in US20240109865A1, “INDAZOLE COMPOUNDS AS KINASE INHIBITORS” (TYRA BIOSCIENCES, INC., priority 2020, published 2024).

What all share (experiment): Kinase assay, binding constants (Kd), kinase-tagged T7 phage, qPCR
A general note: In qPCR the cycle at which signal appears reflects the starting amount.

Experiment [1] has as its target FGFR4 (Homo sapiens (Human), UniProt P22455). Put shortly: (§1)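 Using T7 phage lysates from BL21-derived E. coli, compounds at 0.9% final DMSO competed for kinase binding to ligand-bearing magnetic beads. After elution, qPCR measured remaining kinase, and Kds were fitted by non-linear least squares with the Hill slope fixed at −1.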
In experiment [2] the target is FGFR3 (V555M) (Homo sapiens (Human), UniProt P22607, V555M). The conditions noted are these: V555M mutant. An outline of the steps: as §1
Experiment [3] concerns the target FGFR2 (Homo sapiens (Human), UniProt P21802). An outline of the steps:
as §1

Experiment [4] has as its target FGFR3 (Homo sapiens (Human), UniProt P22607). An outline of the steps: as §1
The target in experiment [5] is FGFR1 (Homo sapiens (Human), UniProt P11362). Put shortly: as §1
FGFR1, sequence (P11362 22-822): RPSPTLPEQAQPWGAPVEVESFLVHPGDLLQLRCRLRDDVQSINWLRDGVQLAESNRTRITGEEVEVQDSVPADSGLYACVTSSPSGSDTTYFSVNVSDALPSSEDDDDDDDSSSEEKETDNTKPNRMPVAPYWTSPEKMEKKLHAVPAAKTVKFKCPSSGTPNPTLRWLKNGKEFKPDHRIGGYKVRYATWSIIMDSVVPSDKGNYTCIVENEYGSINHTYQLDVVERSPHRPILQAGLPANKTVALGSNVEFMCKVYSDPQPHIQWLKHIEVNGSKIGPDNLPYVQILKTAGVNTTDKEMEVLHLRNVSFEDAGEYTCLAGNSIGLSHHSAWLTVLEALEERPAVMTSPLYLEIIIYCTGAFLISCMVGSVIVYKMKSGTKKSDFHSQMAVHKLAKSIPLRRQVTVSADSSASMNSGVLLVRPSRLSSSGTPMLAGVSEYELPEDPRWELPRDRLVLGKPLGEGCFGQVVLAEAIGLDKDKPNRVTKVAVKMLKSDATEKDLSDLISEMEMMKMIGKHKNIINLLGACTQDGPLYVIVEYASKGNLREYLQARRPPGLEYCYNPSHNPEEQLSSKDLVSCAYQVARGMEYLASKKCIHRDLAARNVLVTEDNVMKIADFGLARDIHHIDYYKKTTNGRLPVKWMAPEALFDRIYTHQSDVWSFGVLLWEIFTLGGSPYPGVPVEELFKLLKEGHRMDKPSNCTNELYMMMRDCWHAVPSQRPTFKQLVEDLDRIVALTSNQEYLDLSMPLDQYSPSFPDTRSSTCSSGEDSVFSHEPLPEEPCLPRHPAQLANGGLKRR

FGFR3, sequence (P22607 23-806): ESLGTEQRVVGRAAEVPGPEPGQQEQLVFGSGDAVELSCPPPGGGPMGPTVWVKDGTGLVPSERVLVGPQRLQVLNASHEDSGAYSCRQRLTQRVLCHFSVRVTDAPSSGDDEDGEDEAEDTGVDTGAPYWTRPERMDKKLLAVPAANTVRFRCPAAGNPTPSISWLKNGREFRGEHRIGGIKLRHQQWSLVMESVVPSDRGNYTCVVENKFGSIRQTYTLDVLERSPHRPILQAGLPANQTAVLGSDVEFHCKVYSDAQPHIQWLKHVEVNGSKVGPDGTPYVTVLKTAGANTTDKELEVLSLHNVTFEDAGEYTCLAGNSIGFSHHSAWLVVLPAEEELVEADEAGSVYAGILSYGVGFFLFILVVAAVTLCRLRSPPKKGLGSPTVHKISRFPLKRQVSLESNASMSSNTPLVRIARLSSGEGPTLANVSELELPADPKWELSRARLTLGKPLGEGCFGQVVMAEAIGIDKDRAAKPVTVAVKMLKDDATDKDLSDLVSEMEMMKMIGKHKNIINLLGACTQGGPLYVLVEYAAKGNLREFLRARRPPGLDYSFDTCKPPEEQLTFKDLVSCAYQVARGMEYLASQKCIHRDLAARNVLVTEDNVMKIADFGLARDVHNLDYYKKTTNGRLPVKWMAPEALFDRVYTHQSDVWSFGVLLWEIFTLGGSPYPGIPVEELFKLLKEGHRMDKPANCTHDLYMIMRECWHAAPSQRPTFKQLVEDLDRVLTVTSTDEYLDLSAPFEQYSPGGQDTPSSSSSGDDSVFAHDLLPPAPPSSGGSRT
FGFR3 (V555M), sequence (P22607 23-806 V555M): as the sequence (P22607 23-806) above, with V533M counted along it
FGFR2, sequence (P21802 22-821): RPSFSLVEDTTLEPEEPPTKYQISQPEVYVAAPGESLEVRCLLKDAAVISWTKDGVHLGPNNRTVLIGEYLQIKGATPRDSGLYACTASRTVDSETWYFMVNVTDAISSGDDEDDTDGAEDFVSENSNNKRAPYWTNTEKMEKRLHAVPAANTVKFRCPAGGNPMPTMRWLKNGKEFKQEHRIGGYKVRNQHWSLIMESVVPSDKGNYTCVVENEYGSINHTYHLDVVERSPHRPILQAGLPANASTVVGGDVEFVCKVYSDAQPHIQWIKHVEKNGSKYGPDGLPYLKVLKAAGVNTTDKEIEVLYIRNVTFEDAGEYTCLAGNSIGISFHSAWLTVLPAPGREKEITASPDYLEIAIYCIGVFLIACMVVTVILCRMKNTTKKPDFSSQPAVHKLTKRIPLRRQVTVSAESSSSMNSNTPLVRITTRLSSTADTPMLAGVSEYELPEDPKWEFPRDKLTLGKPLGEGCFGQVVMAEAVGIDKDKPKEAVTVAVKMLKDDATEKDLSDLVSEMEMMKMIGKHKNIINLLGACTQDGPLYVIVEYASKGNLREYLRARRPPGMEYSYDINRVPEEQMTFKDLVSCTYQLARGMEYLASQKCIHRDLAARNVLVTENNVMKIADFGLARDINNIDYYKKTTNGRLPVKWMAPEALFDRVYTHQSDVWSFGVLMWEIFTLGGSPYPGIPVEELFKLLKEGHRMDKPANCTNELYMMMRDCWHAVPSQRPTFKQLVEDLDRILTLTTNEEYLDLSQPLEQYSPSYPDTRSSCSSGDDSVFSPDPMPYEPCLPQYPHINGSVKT
FGFR4, sequence (P22455 22-802): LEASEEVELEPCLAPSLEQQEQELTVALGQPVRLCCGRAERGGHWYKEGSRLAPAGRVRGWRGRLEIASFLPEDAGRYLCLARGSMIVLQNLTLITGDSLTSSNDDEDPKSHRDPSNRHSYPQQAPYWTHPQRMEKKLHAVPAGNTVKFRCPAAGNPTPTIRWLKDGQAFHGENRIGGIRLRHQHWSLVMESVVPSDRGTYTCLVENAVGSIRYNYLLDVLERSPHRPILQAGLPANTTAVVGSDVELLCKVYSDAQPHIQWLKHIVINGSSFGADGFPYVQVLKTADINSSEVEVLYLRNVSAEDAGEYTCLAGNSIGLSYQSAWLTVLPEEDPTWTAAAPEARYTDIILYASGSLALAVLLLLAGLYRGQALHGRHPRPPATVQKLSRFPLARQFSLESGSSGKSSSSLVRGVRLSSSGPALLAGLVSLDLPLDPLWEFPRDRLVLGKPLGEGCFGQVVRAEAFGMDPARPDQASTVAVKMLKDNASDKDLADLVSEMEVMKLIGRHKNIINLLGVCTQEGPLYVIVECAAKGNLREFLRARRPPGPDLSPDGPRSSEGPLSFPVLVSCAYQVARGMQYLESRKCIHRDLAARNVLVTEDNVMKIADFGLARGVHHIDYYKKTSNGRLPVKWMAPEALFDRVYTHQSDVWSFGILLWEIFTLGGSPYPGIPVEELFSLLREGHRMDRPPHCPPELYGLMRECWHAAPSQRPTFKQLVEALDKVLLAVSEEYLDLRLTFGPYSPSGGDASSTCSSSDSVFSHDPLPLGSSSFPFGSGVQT

As usually defined, the Kd is the free concentration of one partner at which half of the binding sites on the other are occupied at equilibrium, for simple one-to-one binding. Turning to `C[C@@H](Oc1cc2c(-c3cnc(N4CC[C@@H]4C)c(C#N)c3)n[nH]c2cc1Cl)c1c(Cl)cncc1Cl` [Example 365, 5-(6-chloro-5-((R)-1-(3,5-dichloropyridin-4-yl)ethoxy)-1H-indazol-3-yl)-2-((S)-2-methylazetidin-1-yl)nicotinonitrile], the Kd is 20 to 100 nM in experiment [1]; 100 to 300 nM in experiment [2]; above 300 nM in experiment [3]; 100 to 300 nM in experiment [4]; above 300 nM in experiment [5].

Turning to `C[C@@H](Oc1cc2c(-c3cnc(N4CCC4)c(CN(C)C)c3)n[nH]c2cc1Cl)c1c(Cl)cncc1Cl` [Example 366, (R)-1-(2-(azetidin-1-yl)-5-(6-chloro-5-(1-(3,5-dichloropyridin-4-yl)ethoxy)-1H-indazol-3-yl)pyridin-3-yl)-N,N-dimethylmethanamine], the Kd was 1 to 20 nM in experiment [1]; 20 to 100 nM in experiment [2]; above 300 nM in experiment [3]; 20 to 100 nM in experiment [4]; 100 to 300 nM in experiment [5].

Consider `COc1cc2[nH]nc(-c3cnc(N4CCC4)c(S(C)(=O)=O)c3)c2cc1O[C@H](C)c1c(Cl)cncc1Cl` [Example 367, (R)-3-(6-(azetidin-1-yl)-5-(methylsulfonyl)pyridin-3-yl)-5-(1-(3,5-dichloropyridin-4-yl)ethoxy)-6-methoxy-1H-indazole], for which the Kd in experiment [1] was 20 to 100 nM; in experiment [2], 20 to 100 nM; in experiment [3], above 300 nM; in experiment [4] it was 100 to 300 nM; in experiment [5], above 300 nM.

With `CNCc1cc(-c2n[nH]c3ccc(O[C@H](C)c4c(Cl)cncc4Cl)cc23)cnc1N1CC2(C1)CN(S(C)(=O)=O)C2` [Example 368, (R)-1-(5-(5-(1-(3,5-dichloropyridin-4-yl)ethoxy)-1H-indazol-3-yl)-2-(6-(methylsulfonyl)-2,6-diazaspiro[3.3]heptan-2-yl)pyridin-3-yl)-N-methylmethanamine], the Kd in experiment [1] is 100 to 300 nM; in experiment [2], 100 to 300 nM; in experiment [3], above 300 nM; in experiment [4] it was above 300 nM; in experiment [5], above 300 nM.

As for `CNCc1cc(-c2n[nH]c3cc(OC)c(O[C@H](C)c4c(Cl)cncc4Cl)cc23)cnc1N1CC2(C1)CN(S(C)(=O)=O)C2` [Example 369, (R)-1-(5-(5-(1-(3,5-dichloropyridin-4-yl)ethoxy)-6-methoxy-1H-indazol-3-yl)-2-(6-(methylsulfonyl)-2,6-diazaspiro[3.3]heptan-2-yl)pyridin-3-yl)-N-methylmethanamine], the Kd in experiment [1] was 20 to 100 nM; in experiment [2] it was 20 to 100 nM; in experiment [3], above 300 nM; in experiment [4], 20 to 100 nM; in experiment [5], above 300 nM.

On to `C[C@@H](Oc1cc2c(-c3cnc(N4CCC4)c(S(C)(=O)=O)c3)n[nH]c2cc1Cl)c1c(Cl)cncc1Cl` [Example 370, (R)-3-(6-(azetidin-1-yl)-5-(methylsulfonyl)pyridin-3-yl)-6-chloro-5-(1-(3,5-dichloropyridin-4-yl)ethoxy)-1H-indazole], for which the Kd in experiment [1] was 20 to 100 nM; in experiment [2] it was 20 to 100 nM; in experiment [3] it was above 300 nM; in experiment [4], 20 to 100 nM; in experiment [5], above 300 nM.

Consider `C[C@@H](Oc1cc2c(-c3cnc(N4CC(C)(C)C4)c(CN(C)C)c3)n[nH]c2cc1Cl)c1c(Cl)cncc1Cl` [Example 371, (R)-1-(5-(6-chloro-5-(1-(3,5-dichloropyridin-4-yl)ethoxy)-1H-indazol-3-yl)-2-(3,3-dimethylazetidin-1-yl)pyridin-3-yl)-N,N-dimethylmethanamine], for which the Kd is 100 to 300 nM in experiment [1]; above 300 nM in experiment [2]; above 300 nM in experiment [3]; above 300 nM in experiment [4]; above 300 nM in experiment [5].

On to `COc1cc2[nH]nc(-c3cnc(N4CC[C@H]4C)c(S(C)(=O)=O)c3)c2cc1O[C@H](C)c1c(Cl)cncc1Cl` [Example 372, 5-((R)-1-(3,5-dichloropyridin-4-yl)ethoxy)-6-methoxy-3-(6-((R)-2-methylazetidin-1-yl)-5-(methylsulfonyl)pyridin-3-yl)-1H-indazole], for which the Kd in experiment [1] lay within 1 to 20 nM; in experiment [2], 1 to 20 nM; in experiment [3], 100 to 300 nM; in experiment [4] it was 20 to 100 nM; in experiment [5] it was 100 to 300 nM.

For the compound `C[C@@H]1CCN1c1ncc(-c2n[nH]c3cc(Cl)c(O[C@H](C)c4c(Cl)cncc4Cl)cc23)cc1C#N` [Example 374, 5-(6-chloro-5-((R)-1-(3,5-dichloropyridin-4-yl)ethoxy)-1H-indazol-3-yl)-2-((R)-2-methylazetidin-1-yl)nicotinonitrile], the Kd in experiment [1] was 20 to 100 nM; in experiment [2] it was 20 to 100 nM; in experiment [3], above 300 nM; in experiment [4] it was 100 to 300 nM; in experiment [5], above 300 nM.

Consider `COc1cc2[nH]nc(-c3cnc(N4CC[C@@H]4C)c(S(C)(=O)=O)c3)c2cc1O[C@H](C)c1c(Cl)cncc1Cl` [Example 375, 5-((R)-1-(3,5-dichloropyridin-4-yl)ethoxy)-6-methoxy-3-(6-((S)-2-methylazetidin-1-yl)-5-(methylsulfonyl)pyridin-3-yl)-1H-indazole], for which the Kd is 1 to 20 nM in experiment [1]; 20 to 100 nM in experiment [2]; above 300 nM in experiment [3]; 100 to 300 nM in experiment [4]; above 300 nM in experiment [5].

As to `COc1cc2[nH]nc(-c3cnc(N4CC(C)(C)C4)c(S(C)(=O)=O)c3)c2cc1O[C@H](C)c1c(Cl)cncc1Cl` [Example 376, (R)-5-(1-(3,5-dichloropyridin-4-yl)ethoxy)-3-(6-(3,3-dimethylazetidin-1-yl)-5-(methylsulfonyl)pyridin-3-yl)-6-methoxy-1H-indazole], the Kd in experiment [1] is 1 to 20 nM; in experiment [2] it was 20 to 100 nM; in experiment [3] it was 100 to 300 nM; in experiment [4], 20 to 100 nM; in experiment [5] it was above 300 nM.

Take `C[C@@H](Oc1cc2c(-c3cnc(N4CCC4)c(C#N)c3)n[nH]c2cc1Cl)c1c(Cl)cncc1Cl` [Example 377, 2-(azetidin-1-yl)-5-[6-chloro-5-[(1R)-1-(3,5-dichloro-4-pyridyl)ethoxy]-1H-indazol-3-yl]pyridine-3-carbonitrile]: the Kd in experiment [1] is 1 to 20 nM; in experiment [2], 20 to 100 nM; in experiment [3], above 300 nM; in experiment [4], 100 to 300 nM; in experiment [5] it was above 300 nM.

Consider `C[C@@H](Oc1cc2c(-c3cnc(N4CC5(CCS(=O)(=O)C5)C4)c(C#N)c3)n[nH]c2cc1F)c1c(Cl)cncc1Cl` [Example 378, 5-[5-[(1R)-1-(3,5-dichloro-4-pyridyl)ethoxy]-6-fluoro-1H-indazol-3-yl]-2-(6,6-dioxo-6λ^6-thia-2-azaspiro[3.4]octan-2-yl)pyridine-3-carbonitrile], for which the Kd in experiment [1] fell in the range of 1 to 20 nM; in experiment [2], 1 to 20 nM; in experiment [3], 20 to 100 nM; in experiment [4], 1 to 20 nM; in experiment [5], 100 to 300 nM.

Consider `Cc1ncc(Cl)c([C@@H](C)Oc2cc3c(-c4cnc(N5CC6(C5)CN(S(C)(=O)=O)C6)c(C#N)c4)n[nH]c3cc2F)c1Cl` [Example 379, 5-[5-[(1R)-1-(3,5-dichloro-2-methyl-4-pyridyl)ethoxy]-6-fluoro-1H-indazol-3-yl]-2-(2-methylsulfonyl-2,6-diazaspiro[3.3]heptan-6-yl)pyridine-3-carbonitrile], for which the Kd in experiment [1] is 1 to 20 nM; in experiment [2] it was 1 to 20 nM; in experiment [3] it was 100 to 300 nM; in experiment [4], 20 to 100 nM; in experiment [5], 100 to 300 nM.

Consider `C[C@@H](Oc1cc2c(-c3cnc(N4CC5(CCCN(S(C)(=O)=O)C5)C4)c(C#N)c3)n[nH]c2cc1F)c1c(Cl)cncc1Cl` [Example 380, 5-[5-[(1R)-1-(3,5-dichloro-4-pyridyl)ethoxy]-6-fluoro-1H-indazol-3-yl]-2-(8-methylsulfonyl-2,8-diazaspiro[3.5]nonan-2-yl)pyridine-3-carbonitrile], for which the Kd in experiment [1] was 1 to 20 nM; in experiment [2], 20 to 100 nM; in experiment [3] it was above 300 nM; in experiment [4] it was 20 to 100 nM; in experiment [5], 100 to 300 nM.
